Results taken from patent US20240147991A1, “Diphenyl Tablets and Methods of Preparing the Same” (Ideaz, LLC, priority 2018, published 2024).

Assay: Evaluation of sublimation of diphenyl tablets versus granules exposed to air
Assay type: physicochemical
Conditions: 22 days; 1.06 grams substance at start; empty tray 1 3.715 grams (tablets), empty tray 2 3.650 grams (granules)
Text: Two trays were fashioned from equal sized sheets of aluminum foil and tape. The trays were each weighed after fashioning, with tray 1 weighing 3.715 grams and tray 2 weighing 3.650 grams (a weight difference between trays of 0.065 grams). Two compressed diphenyl tablets handled with tweezers were first weighed at a total weight of 1.06 grams and then placed into tray 1. An equal amount of diphenyl granules (i.e., having a total weight of 1.06 grams) was spooned into tray 2.
Both trays were exposed to air over 22 days and re-weighed. Tray 1 weighed 4.45 grams and tray 2 weighed 3.99 grams. After adjusting the weight difference of the trays by subtracting 0.065 grams from tray 1, it can be seen that the diphenyl tablets sublimed at a slower rate than the diphenyl granules by retaining 8.88 weight % more than the granules after being exposed to air for 22 days.

c1ccc(-c2ccccc2)cc1 [diphenyl granules, diphenyl]
Weight of tray with substance after exposure to air: 3.99 grams
